Measured values as given in ChEMBL document CHEMBL1201862, “PubChem BioAssay data set” (2004).
Calls of active or inactive are those of the source.

Columns and labels:
[1] = microbe, parasite or virus in culture; type: functional; settings: Mycobacterium tuberculosis
[2] = target: FAD-linked sulfhydryl oxidase ALR (Homo sapiens, UniProt P55789); assay: inhibitors of human ALR sulfhydryl oxidase, dose response, biochemical, H2O2 detection, luminescence, cherry-pick (AID 493248)
Cytochrome P450 2C9 = Cytochrome P450 2C9 (Homo sapiens, UniProt P11712)
Cytochrome P450 2C9, sequence (P11712 whole entry): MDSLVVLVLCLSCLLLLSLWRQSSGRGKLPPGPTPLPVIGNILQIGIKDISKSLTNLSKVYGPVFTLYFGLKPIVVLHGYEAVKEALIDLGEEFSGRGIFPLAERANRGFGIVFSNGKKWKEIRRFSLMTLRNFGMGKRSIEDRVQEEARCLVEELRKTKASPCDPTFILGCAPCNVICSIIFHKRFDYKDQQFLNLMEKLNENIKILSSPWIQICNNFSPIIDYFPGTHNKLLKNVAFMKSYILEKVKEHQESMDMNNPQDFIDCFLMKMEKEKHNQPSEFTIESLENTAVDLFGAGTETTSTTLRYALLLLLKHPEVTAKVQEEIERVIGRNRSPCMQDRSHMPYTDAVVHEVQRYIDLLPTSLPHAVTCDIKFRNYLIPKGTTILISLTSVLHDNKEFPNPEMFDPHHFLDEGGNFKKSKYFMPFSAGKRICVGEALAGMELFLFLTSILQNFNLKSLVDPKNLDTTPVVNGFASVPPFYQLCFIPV

[3] = target: T1, Heat shock factor protein 1 (Mus musculus, UniProt P38532); assay: HSF1 potentiators in luciferase reporter cells, confirmation, cell-based, NIH3T3, luminescence, dose retest (AID 435004); type: functional;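 note: stress induced by proteasome inhibitor MG132 added 30 min after compound; luciferase reporter driven by HSF1 response element in NIH3T3 cells; actives raise luminescence as potentiators of the MG132 stress response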
T1 sequence (P38532 whole entry): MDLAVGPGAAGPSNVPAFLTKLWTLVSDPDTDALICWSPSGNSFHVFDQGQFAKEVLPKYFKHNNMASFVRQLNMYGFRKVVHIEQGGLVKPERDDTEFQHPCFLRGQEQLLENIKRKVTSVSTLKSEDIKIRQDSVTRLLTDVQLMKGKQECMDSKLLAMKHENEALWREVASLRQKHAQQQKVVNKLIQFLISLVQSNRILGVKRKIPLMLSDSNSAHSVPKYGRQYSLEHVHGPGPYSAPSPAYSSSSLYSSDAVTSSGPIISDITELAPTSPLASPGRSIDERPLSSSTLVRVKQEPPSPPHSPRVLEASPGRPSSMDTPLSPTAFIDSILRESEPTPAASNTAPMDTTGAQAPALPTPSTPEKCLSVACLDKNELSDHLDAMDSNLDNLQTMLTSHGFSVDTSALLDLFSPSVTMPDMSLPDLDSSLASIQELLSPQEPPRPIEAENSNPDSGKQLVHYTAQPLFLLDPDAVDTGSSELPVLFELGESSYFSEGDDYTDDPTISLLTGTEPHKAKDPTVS

Cytochrome P450 3A4 = Cytochrome P450 3A4 (Homo sapiens, UniProt P08684);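 note: CYP3A4 tested as one member of a cytochrome P450 panel screen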
Cytochrome P450 3A4, sequence (P08684 whole entry): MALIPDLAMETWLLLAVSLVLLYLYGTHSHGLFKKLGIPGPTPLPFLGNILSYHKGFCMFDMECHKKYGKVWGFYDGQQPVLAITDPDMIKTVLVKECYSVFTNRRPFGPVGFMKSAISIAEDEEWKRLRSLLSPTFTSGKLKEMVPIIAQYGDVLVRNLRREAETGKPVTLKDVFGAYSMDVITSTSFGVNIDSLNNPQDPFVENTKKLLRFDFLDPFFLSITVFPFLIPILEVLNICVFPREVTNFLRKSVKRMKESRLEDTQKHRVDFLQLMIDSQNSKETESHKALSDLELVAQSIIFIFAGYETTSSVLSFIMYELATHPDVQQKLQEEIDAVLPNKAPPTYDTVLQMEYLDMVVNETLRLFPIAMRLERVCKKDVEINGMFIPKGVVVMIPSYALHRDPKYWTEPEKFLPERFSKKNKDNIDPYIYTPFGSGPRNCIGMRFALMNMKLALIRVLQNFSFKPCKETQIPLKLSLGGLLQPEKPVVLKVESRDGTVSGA

Cytochrome P450 2D6 = Cytochrome P450 2D6 (Homo sapiens, UniProt P10635);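 note: CYP2D6 member of a cytochrome P450 panel assay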
Cytochrome P450 2D6, sequence (P10635 whole entry): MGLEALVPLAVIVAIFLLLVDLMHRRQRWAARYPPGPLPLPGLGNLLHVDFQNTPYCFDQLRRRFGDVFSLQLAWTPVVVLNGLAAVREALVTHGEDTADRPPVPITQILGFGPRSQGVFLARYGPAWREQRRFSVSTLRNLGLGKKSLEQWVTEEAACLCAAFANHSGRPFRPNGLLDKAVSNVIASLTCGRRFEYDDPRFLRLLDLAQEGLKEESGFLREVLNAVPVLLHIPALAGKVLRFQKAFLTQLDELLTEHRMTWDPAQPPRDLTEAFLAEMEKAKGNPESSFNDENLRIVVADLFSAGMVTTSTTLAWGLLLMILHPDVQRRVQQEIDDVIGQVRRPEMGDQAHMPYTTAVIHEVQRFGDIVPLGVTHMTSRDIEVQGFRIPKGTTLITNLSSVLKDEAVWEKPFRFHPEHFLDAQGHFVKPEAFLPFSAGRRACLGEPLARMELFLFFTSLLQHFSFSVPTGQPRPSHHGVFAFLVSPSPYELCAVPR

[4] = target: T1, Heat shock factor protein 1; assay: inhibition of MG132-induced HSE-luciferase signal, confirmation, cell-based, NIH3T3, luminescence, dose retest (AID 2382); type: functional;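 note: NIH3T3 fibroblasts with HSF1-driven luciferase reporter stressed by proteasome inhibitor MG132; luminescence from HSF1-driven luciferase expression after 8 hours of MG132 stress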
Cytochrome P450 2C19 = Cytochrome P450 2C19 (Homo sapiens, UniProt P33261); assay: Cytochrome panel assay with activity outcomes. Panel member name: p450-cyp2c19 Compounds with AC50 equal or less than 10 uM are considered active; type: functional
Cytochrome P450 2C19, sequence (P33261 whole entry): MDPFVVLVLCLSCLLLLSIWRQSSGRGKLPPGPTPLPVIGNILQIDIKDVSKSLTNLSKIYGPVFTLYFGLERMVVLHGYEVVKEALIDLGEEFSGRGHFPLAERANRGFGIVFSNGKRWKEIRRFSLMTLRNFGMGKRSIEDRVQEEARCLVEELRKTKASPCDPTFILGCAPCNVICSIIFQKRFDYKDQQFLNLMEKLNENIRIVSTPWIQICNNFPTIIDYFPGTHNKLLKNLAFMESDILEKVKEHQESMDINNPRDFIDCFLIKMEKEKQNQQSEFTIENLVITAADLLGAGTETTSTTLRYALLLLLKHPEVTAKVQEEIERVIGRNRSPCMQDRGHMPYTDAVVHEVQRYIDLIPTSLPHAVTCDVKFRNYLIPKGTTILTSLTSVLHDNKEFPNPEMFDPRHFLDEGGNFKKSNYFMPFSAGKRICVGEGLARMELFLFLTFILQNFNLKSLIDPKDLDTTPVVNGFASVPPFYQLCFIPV

Cytochrome P450 1A2 = target: T2, Cytochrome P450 1A2 (Homo sapiens, UniProt P05177);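 note: PubChem cytochrome P450 panel assay, CYP1A2 panel member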
T2 sequence (P05177 whole entry): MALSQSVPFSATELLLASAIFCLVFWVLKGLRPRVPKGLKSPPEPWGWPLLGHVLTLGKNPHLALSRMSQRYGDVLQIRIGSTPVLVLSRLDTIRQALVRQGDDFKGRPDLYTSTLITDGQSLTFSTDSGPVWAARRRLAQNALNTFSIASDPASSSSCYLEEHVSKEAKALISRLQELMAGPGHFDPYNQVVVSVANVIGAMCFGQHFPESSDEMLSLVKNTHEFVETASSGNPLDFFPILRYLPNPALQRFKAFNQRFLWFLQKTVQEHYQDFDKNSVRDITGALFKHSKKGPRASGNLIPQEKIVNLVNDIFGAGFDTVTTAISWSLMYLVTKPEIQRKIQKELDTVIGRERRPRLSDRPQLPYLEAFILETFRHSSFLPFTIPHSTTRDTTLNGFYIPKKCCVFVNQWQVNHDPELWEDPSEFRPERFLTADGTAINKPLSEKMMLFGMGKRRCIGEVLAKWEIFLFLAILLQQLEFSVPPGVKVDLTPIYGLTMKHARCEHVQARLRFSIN

[5] = Luminescence Cell-Based Dose Response HTS to Identify Inhibitors of 5'UTR Stem-Loop Driven Prion Protein mRNA Translation in H4 Neuroglioblastoma Cells. [Related pubchem assays: 1827 (Project Summary), 1813 (Primary HTS)]; type: functional

FAD-linked sulfhydryl oxidase ALR, sequence (P55789 whole entry): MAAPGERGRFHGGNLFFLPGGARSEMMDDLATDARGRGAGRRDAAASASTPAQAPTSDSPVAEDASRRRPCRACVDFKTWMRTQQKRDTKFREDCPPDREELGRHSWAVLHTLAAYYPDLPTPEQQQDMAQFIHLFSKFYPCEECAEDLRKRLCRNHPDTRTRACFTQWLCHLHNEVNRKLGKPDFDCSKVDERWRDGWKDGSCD

In the case of `Cn1c(NCC(O)c2ccccc2)nc2c1c(=O)n(Cc1ccc(Cl)c(Cl)c1)c(=O)n2C` (configuration not stated), the CC50 [1] is reported as 25.5 µM (active).

In the case of `O=C(c1ccccc1)c1cccn1CC(=O)N1CCN(c2ccccc2)CC1`, the AC50 [2] is reported as 12.4 µM (active).

In the case of `COc1ccc2[nH]c(C(=O)c3ccccc3)cc2c1`, the AC50 (Cytochrome P450 2C9) is reported as 39.8 µM (inconclusive).

For `CN(c1ccccc1C(=O)N1CCN(c2ccccc2)CC1)S(C)(=O)=O`, the AC50 [2] was 2.93 µM (active).

With `COC(=O)CCC(=O)C1=C(N)CC(C)(C)CC1=O` the EC50 [3] was > 260 µM (inactive).

In the case of `COc1ccc(OC)c(NC(=O)CCN2CCN(c3ccccc3)CC2)c1`, the AC50 [2] is reported as 3.7 µM (active).

For `CCOC(=O)C1=C(c2ccccc2)NC(SC)=C(C#N)C1c1ccco1` (configuration not stated), the EC50 [3] was > 260 µM (inactive).

For `CCN1C/C(=C\c2cccc(C)c2)c2nc3ccccc3c(C(=O)O)c2C1`, the AC50 (Cytochrome P450 3A4) was 25.1 µM (inconclusive), the AC50 (Cytochrome P450 2C9) was 8.91 µM (inconclusive) and the AC50 (Cytochrome P450 2D6) was 17.8 µM (inconclusive).

With `O=C(O)c1ccc(/N=c2\oc3cc(O)ccc3cc2C(=O)NCc2ccccc2)cc1` the AC50 [2] was 1.71 µM (active).

For `CCOC(=O)C1(C)NC(c2ccc(O)cc2)C2C(=O)N(c3ccccc3)C(=O)C21` (configuration not stated), the EC50 [4] was 93.8 µM (active).

With `Cc1cc(C)c2cc(CN(Cc3ccco3)C(S)=NCC3CCCO3)c(O)nc2c1` (configuration not stated) the EC50 [3] was > 260 µM (inactive).

With `Cc1nn(Cc2ccc(Cl)cc2)c(C)c1N` the AC50 [2] was 28.5 µM (active).

In the case of `C/C(=N\NC(=O)c1nnn(-c2nonc2N)c1C(C)C)c1ccncc1`, the EC50 [4] is reported as > 195 µM (not active).

For `O=C(Nc1ccc(Oc2cccc(C(F)(F)F)c2)nc1)c1cccs1`, the CC50 [1] was > 40 µM (active).

For `O=C(c1cc(C(F)(F)F)cc(C(F)(F)F)c1)N1CCC2(CCCN(c3ccncc3)C2)CC1`, the AC50 (Cytochrome P450 2C9) was 31.6 µM (inconclusive) and the AC50 (Cytochrome P450 2D6) was 15.8 µM (inconclusive).

For `O=C(NCc1ccc(F)cc1)C1CCN(S(=O)(=O)N2CCCCC2)CC1`, the AC50 (Cytochrome P450 3A4) was 14.1 µM (inconclusive), the AC50 (Cytochrome P450 2C9) was 10 µM (inconclusive) and the AC50 (Cytochrome P450 2C19; read-out: AC50) was 31.6 µM (inconclusive).

In the case of `CCOC(=O)C(=O)/C(C#N)=C/Nc1ccccc1`, the EC50 [3] is reported as 168 µM (active).

For `CCC(C)NC(=O)c1c(C)cc(=O)oc1C` (configuration not stated), the AC50 (Cytochrome P450 1A2) was 28.2 µM (inconclusive) and the AC50 (Cytochrome P450 2C9) was 5.01 µM (inconclusive).

With `O=S(=O)(c1ccccc1)N1CCC2(CCN(Cc3ccncc3)CC2)CC1` the AC50 (Cytochrome P450 2C9) was 25.1 µM (inconclusive) and the AC50 (Cytochrome P450 2D6) was 25.1 µM (inconclusive).

For `Cc1cccc(N(C(=O)c2ccc(CN3CCOCC3)o2)C(C(=O)NC(C)(C)C)c2ccc(F)cc2)c1` (configuration not stated), the EC50 [3] was > 260 µM (inactive).

In the case of `Cc1ccc(S(=O)(=O)NC2c3cccc4cccc(c34)C2Sc2nncn2C)cc1` (configuration not stated), the EC50 [3] is reported as > 260 µM (inactive).

In the case of `O[C@@H]1C2CCCC1[C@]1(O)CCCCC1C2` (some centres not stated), the EC50 [3] is reported as > 260 µM (inactive).

For `CCOC(=O)CSc1nc(O)c2cnn(-c3ccc(C)cc3)c2n1`, the AC50 (Cytochrome P450 3A4) was 3.16 µM (inconclusive), the AC50 (Cytochrome P450 2C9) was 2.24 µM (inconclusive) and the AC50 (Cytochrome P450 2C19) was “inconclusive”.

For `CN(C)c1ccc(N=Nc2ccc(C(=O)O)cc2)cc1`, the EC50 [5] was 11.8 µM (active) and the EC50 [4] was 1.68 µM (active).

With `CSc1cccc(NC(=O)c2ccc(Cl)nc2)c1` the AC50 (Cytochrome P450 2C9) was 39.8 µM (inconclusive), the AC50 (Cytochrome P450 2C19; read-out: AC50) was 25.1 µM (inconclusive) and the AC50 (Cytochrome P450 2D6) was 14.1 µM (inconclusive).
